# Values of other authors in article PMC3853718 (Journal of Translational Medicine, 2013).
# Like-named read-outs stand apart in the source and are kept apart here.
# Key:
# patients = conditions: cited from earlier work; for toxicity: 1-hour infusion on days 1, 8, 15 in a 4-week cycle
# solid tumor patients = conditions: cited from earlier work
# healthy volunteers = tested on: healthy volunteers; design: method as in PMID 17115157; conditions: single dose of 160 mg; cited from earlier work
# mouse xenograft model = conditions: cited from earlier work
# nude mice = conditions: once-daily administration for 7 days in nude mice; cited from earlier work
structure (smiles),measurement,setting,value
Cc1ncc(-c2ccnc(Nc3ccc(S(C)(=O)=O)cc3)n2)n1C(C)C [AZD5438],tolerability,"patients; 40 mg four times a day, continuous daily dosing schedules, advanced solid tumors",not tolerated
same,objective responses,solid tumor patients; 3 phase 1 trials,No responses
same,DLT,healthy volunteers,nausea and vomiting
CC(=O)c1c(C)c2cnc(Nc3ccc(N4CCNCC4)cn3)nc2n(C2CCCC2)c1=O [PD0332991],DLTs,patients,neutropenia
same,objective responses,solid tumor patients; patient with testicular cancer among 33 patients,one PR
CN1CC[C@H](c2c(O)cc(O)c3c(=O)cc(-c4ccccc4Cl)oc23)[C@H](O)C1 [flavopiridol],dose-limiting toxicity,patients; 72-hour continuous infusion trials,dose-limiting diarrhea
same,dose-limiting toxicity,patients; daily 1-hour infusion schedule,dose-limiting neutropenia
same,objective responses,"solid tumor patients; 55 patients, 1-hour daily infusion for 5 days, 3 days, or 1 day in a 21-day cycle",No objective responses
same,objective responses,"solid tumor patients; 72-hour continuous infusion every 2 weeks, study of 76 patients, patient with renal cancer",one PR
same,objective responses,"solid tumor patients; 72-hour continuous infusion every 2 weeks, trial of 38 patients, patient with gastric cancer",one CR
same,"minimum effective dose, defined as >50% tumor growth inhibition",mouse xenograft model,10 mg/kg
same,"maximum tolerated dose, defined as the dose associated with 20% weight loss",nude mice,< 10 mg/kg
O=C(NC1CCNCC1)c1[nH]ncc1NC(=O)c1c(Cl)cccc1Cl [AT7519],objective responses,solid tumor patients; patient with metastatic NSCLC,one PR
CC(C)CC(=O)Nc1[nH]nc2c1CN(C(=O)C1CCN(C)CC1)C2(C)C [PHA793887],toxicity,"patients; dose level of 66 mg/m^2, one patient",grade 4 hepatic failure
same,toxicity,"patients; third dose level of 44 mg/m^2, one patient",fatal hepatorenal failure
same,objective responses,solid tumor patients; first-in-human study in solid tumor patients,did not show any objective responses
CC[C@H](CO)Nc1nc(NCc2ccccc2)c2ncn(C(C)C)c2n1 [seliciclib],Dose-limiting toxicities,patients; orally twice daily for 7 days of a 21-day schedule,"hypokalemia, hyponatremia, elevated gamma-glutamyl transferase, hyperglycemia, and vasculitic rash"
same,objective responses,solid tumor patients; patient with hepatocellular carcinoma among 56 patients,one PR
same,objective responses,solid tumor patients; separate trial,No responses
